Species: Mus musculus
Assay: Compound was evaluated for meiosis inducing effect on immature mouse oocytes; Positive
Assay type: functional

SMILES: CC(C)=CCC[C@@H](C)[C@H]1CC=C2C3=C(CC[C@@]21C)[C@@]1(C)CC[C@H](O)C(C)(C)[C@@H]1CC3
- Activity: Positive
